From paper PMC2631241 (Journal of combinatorial chemistry, 2008)

target: human serum albumin (HSA) (Homo sapiens, UniProt P02768); assay: 1D 1H NMR line-broadening titration of ligand with HSA
Sequence (P02768 25-609): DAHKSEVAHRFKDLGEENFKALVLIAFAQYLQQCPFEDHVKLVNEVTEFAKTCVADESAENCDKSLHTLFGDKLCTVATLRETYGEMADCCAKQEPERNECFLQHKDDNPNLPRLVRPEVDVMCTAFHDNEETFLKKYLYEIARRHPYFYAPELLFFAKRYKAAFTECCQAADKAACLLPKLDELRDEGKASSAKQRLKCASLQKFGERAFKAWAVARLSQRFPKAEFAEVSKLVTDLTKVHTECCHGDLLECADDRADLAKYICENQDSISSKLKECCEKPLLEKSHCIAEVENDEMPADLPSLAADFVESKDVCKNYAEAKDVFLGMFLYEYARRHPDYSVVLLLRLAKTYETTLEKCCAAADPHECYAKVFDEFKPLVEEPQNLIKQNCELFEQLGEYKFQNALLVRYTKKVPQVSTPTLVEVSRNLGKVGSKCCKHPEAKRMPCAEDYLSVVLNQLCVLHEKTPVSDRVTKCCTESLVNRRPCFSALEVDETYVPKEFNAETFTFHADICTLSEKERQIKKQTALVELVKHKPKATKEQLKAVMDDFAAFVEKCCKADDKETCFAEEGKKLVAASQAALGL

Compared with `CCOC(=O)C(C)(C)Oc1ccc(Cl)cc1` [Clofibrate, clofibrate], `O=C1NC(=O)C(c2ccccc2)(c2ccccc2)N1` [Phenytoin, phenytoin] is 78-fold higher in Kd: 1.7 ± 3.4 µM for the first, 132 ± 12.5 µM for the second. The first binds more tightly here.

`O=S1(=O)OC(c2ccc(O)cc2)(c2ccc(O)cc2)c2ccccc21` [Phenol Red, phenol red] showed a Kd of 36.8 ± 6.5 µM.
